# Test results: PMC5736207 (PLoS ONE, 2017)
# Assays:
# [1] = target: T1, PMM2 (phosphomannomutase2) (Homo sapiens, UniProt O15305); experiment: coupled NADPH assay of phosphoglucomutase activity; type: biochemical; conditions: 27 μM Glc-1,6-P2; MgCl2 5 mM, pH 7.5, 32°C
# T1 construct: recombinant, E. coli BL21(DE3), purified as in earlier work; no tag mentioned
# T1 sequence (O15305 2-246): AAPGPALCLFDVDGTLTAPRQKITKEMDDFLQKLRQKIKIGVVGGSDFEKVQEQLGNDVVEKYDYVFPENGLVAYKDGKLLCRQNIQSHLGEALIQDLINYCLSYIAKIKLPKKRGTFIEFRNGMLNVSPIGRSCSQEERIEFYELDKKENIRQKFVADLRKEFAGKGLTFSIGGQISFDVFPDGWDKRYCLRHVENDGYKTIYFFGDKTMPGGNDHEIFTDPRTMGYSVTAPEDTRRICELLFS
# [2] = target: T2, PMM1 (phosphomannomutase1) (Homo sapiens, UniProt Q92871); experiment: coupled NADPH assays of phosphoglucomutase and Glc-1,6-P2 phosphatase activity; type: biochemical; conditions: PGM: 40 μM Glc-1-P, 27 μM Glc-1,6-P2, phosphatase: 0.145 mM Glc-1,6-P2
# T2 construct: recombinant, E. coli BL21(DE3), purified as in earlier work (DEAE, butyl Sepharose); dimer; no tag mentioned
# T2 sequence (Q92871 2-262): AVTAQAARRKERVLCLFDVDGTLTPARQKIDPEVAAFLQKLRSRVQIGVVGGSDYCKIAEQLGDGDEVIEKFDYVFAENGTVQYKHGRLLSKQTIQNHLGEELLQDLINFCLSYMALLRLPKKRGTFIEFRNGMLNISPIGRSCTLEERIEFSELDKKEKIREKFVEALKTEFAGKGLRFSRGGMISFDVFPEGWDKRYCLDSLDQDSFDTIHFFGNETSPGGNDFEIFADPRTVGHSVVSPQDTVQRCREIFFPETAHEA
# [3] = target: T1, PMM2 (phosphomannomutase2); experiment: thermal shift assay, Sypro Orange; type: binding; conditions: 0-1 mM Glc-1,6-P2; MgCl2 1 mM, pH 7.5
# [4] = target: T2, PMM1 (phosphomannomutase1); experiment: thermal shift assay, Sypro Orange; type: binding; conditions: 0-1 mM Glc-1,6-P2; MgCl2 1 mM, pH 7.5
compound,measurement,setting,value
O=P(O)(O)O[C@H]1O[C@H](CO)[C@@H](O)[C@H](O)[C@H]1O [Glc-1-P],Km,[1],8.2 ± 0.7 µM
"O=P(O)(O)C(Cl)(Cl)P(=O)(O)O [clodronate, (Dichloro-phosphono-methyl)phosphonic acid]",activity at 2.8 mM clodronate,[2],"clodronate as a novel specific inhibitor of PMM1 that decreases both PGM and Glc-1,6-P2-ase activities"
"O=P(O)(O)OC[C@H]1O[C@H](OP(=O)(O)O)[C@H](O)[C@@H](O)[C@@H]1O [Glc-1,6-P2]",Tm,[3],The bis-phosphate hexose binds PMM2
same,Tm,[4],"effect of Glc-1,6-P2 on the melting temperature of PMM1 is seen only at very high concentrations"
